Results taken from US8148424B2, “Tocopherols, tocotrienols, other chroman and side chain derivatives and uses thereof” (Research Development Foundation, priority 1998, dated 2012).
In brackets after ≈: the same amount, converted by molar mass.

Tests used:
[1] = tested on: P21 in MDA-MB-435 human breast cancer cells; assay: P21 expression; type: cell-based
Source text: The mechanisms of growth inhibition by DNA synthesis arrest, cell cycle arrest and by induction of cellular differentiation have not been characterized as fully as the mechanism of growth inhibition by apoptosis. […] Tumor cells cultured with the compounds disclosed herein are growth inhibited in the G1 cell cycle phase, undergo morphological changes and express milk lipids, an indication that the cell cycle blocked cells have undergone differentiation.

MDA-MB-435 = assay: Bioassay for apoptosis (apoptotic EC50); type: cell-based, human; conditions: MDA-MB-435; unit not given; in µg/mL
Procedure, shortened: (§1)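 Overnight-adhered cells were treated for 1–3 days with compounds at 0.01 to 20 μg/mL. Percent apoptosis was scored microscopically from DAPI-stained chromatin condensation/fragmentation and/or TUNEL detection of DNA 3′-OH ends.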

HL-60 = assay: Bioassay for apoptosis (apoptotic EC50); type: cell-based, human; conditions: HL-60; unit not given; in µg/mL
Procedure, shortened: as §1

LnCaP = assay: Bioassay for apoptosis (apoptotic EC50); type: cell-based, human; conditions: Homo sapiens, unit inferred
Procedure, shortened: as §1

Jurkat = assay: Bioassay for apoptosis (apoptotic EC50); type: cell-based, human; conditions: Homo sapiens, unit inferred
Procedure, shortened: (§2)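 Both floating and trypsin-released adherent cells are collected after compound treatment at six concentrations from 0.01 to 20 μg/mL over up to 3 days. Nuclei are stained with DAPI at 37° C and/or TUNEL-labelled; the fraction with apoptotic morphology is scored.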

DU-145 = assay: Bioassay for apoptosis (apoptotic EC50); type: cell-based, human; conditions: Homo sapiens, unit inferred
Procedure, shortened: as §2

ME-180 = assay: Bioassay for apoptosis (apoptotic EC50); type: cell-based, human; conditions: ME-180; unit not given; in µg/mL
Procedure, shortened: as §1

C-170 = assay: Bioassay for apoptosis (apoptotic EC50); type: cell-based, human; conditions: Homo sapiens, C170, C-170; unit inferred
Procedure, shortened: as §1

DLD-1 = assay: Bioassay for apoptosis (apoptotic EC50); type: cell-based, human; conditions: Homo sapiens, unit inferred
Procedure, shortened: as §2

RL-95-2 = assay: Bioassay for apoptosis (apoptotic EC50); type: cell-based, human; conditions: Homo sapiens, RL95-2, RL-95-2; unit inferred
Procedure, shortened: as §1

HT-29 = assay: Bioassay for apoptosis (apoptotic EC50); type: cell-based, human; conditions: Homo sapiens, unit inferred
Procedure, shortened: as §2

PC-3 = assay: Bioassay for apoptosis (apoptotic EC50); type: cell-based, human; conditions: PC-3; unit not given; in µg/mL
Procedure, shortened: as §1

MCF-7 = assay: Bioassay for apoptosis (apoptotic EC50); type: cell-based, human; conditions: MCF-7; unit not given; in µg/mL
Procedure, shortened: as §1

A-549 = assay: Bioassay for apoptosis (apoptotic EC50); type: cell-based, human; conditions: Homo sapiens, A549, unit inferred
Procedure, shortened: as §2

MDA-MB-231 = assay: Bioassay for apoptosis (apoptotic EC50); type: cell-based, human; conditions: MDA-MB-231; unit not given; in µg/mL
Procedure, shortened: as §1

[2] = tested on: human cancer cells from a wide variety of cell lineages; assay: Apoptosis induction in a battery of tumor cells; type: cell-based; conditions: breast, prostate, leukemia/lymphoid, cervical, ovarian, endometrial, colon, lung cell lines
Procedure, shortened: as §2

[3] = Method: Prior to conducting the preclinical chemotherapeutic studies, compound 1 is assayed in non-tumor Balb/c female mice in an effort to establish the maximum tolerated dose. Compound 1 is dissolved in 100% ethanol to establish a stock solution (2 grams of compound 1 in 5 mls of 100% ethanol) and diluted in peanut oil (non vitamin E supplemented) to yield 20, 10, and 5 mg/0.1 ml. RRR-α-tocopherol succinate (VES; the succinate moiety is attached to RRR-α-tocopherol via an ester linkage) was solubilized and diluted as described above to yield 20 mg/0.1 ml/gavage, serving as an additional control. A total of 30 Balb/c female mice were placed into 6 groups (5 mice/group) and supplemented by gavage with compound 1 daily for a total of 23 days. Group 1 mice were non treated and served a s control; group 2 mice were the vehicle control group and received 0.1 ml of vehicle (ethanol+peanut oil equivalent to treatment groups)/mouse/day for a total of 23 days, […] of VES daily for a total of 23 days. Treatment groups […] were gavaged daily for 23 days with 5, 10, and 20 mgs of compound 1.
[4] = tested on: Fas/Fas ligand signaling pathway; assay: Fas/Fas ligand apoptotic signaling in Fas resistant tumor cells; type: cell-based, human
Source text: Activated Fas/Fas ligand signaling may lead to rapid cell death by apoptosis. Thus, for tumor cells to escape death by Fas/Fas ligand, they must inactivate this most important apoptotic pathway. The mechanism for inactivation of the Fas/Fas ligand signaling pathway by tumor cells varies; however, many tumor cells down regulate the expression of Fas receptor and Fas ligand on their membranes.

MCF-10A = assay: Bioassay for apoptosis (apoptotic EC50); type: cell-based; conditions: Homo sapiens, unit inferred
Method: (§3) Cells were cultured at 1.5×10^5 cells/well in 12 well plates. Cells were allowed to adhere overnight, then incubated with novel test compounds at 0.01, 0.1, 1, 5, 10 & 20 μg/mL for 1, 2 and 3 days. After treatment, cells (floating+trypsin released adherent cells) were pelleted, washed and stained with 2 μg/ml DAPI (4′,6-diamidine-2′-phenylindole dihydrochloride) in 100% methanol for 15 minutes at 37° C. and/or 3′-OH ends resulting from DNA fragmentation were detected with the TUNEL (terminal deoxynucleotidyl transferase-mediated dUTP-X 3′ nick end-labeling) technique, and then viewed using a Zeiss ICM 405 microscope. Cells whose nucleus contained clearly condensed or fragmented chromatin or stained for fragmented DNA in the TUNEL assay were scored as apoptotic. Data are presented as percent cells undergoing apoptosis.

HMEC = assay: Bioassay for apoptosis (apoptotic EC50); type: cell-based; conditions: Homo sapiens, unit inferred
Method: as §3

PREC = assay: Bioassay for apoptosis (apoptotic EC50); type: cell-based; conditions: Homo sapiens, unit inferred
Method: as §3

T47D = assay: Bioassay for apoptosis (apoptotic EC50); type: cell-based; conditions: Homo sapiens, unit inferred
Method: as §3

MCF-7 cells = assay: Apoptosis by DAPI staining (Example 8); type: cell-based, human; conditions: Homo sapiens, MCF7, 72 h, 5% serum, DAPI staining at three day treatment
Method: (§4) MDA-MB-435 and MCF-7 cells at 1.5×10^5/well in 12 well plates for apoptosis and 1.5×10^4/well in 96 well plates for DNA synthesis arrest were incubated overnight in culture media and treated with α-tocopherol, α-tocotrinel, compound 1, 6-0-carboxymethyl alpha-tocotrienol (6-0-CM-α-T, 44), and vitamin E succinate (VES) at different concentrations in experimental media (2% serum for MDA-MB-435 cells and 5% serum for MCF-7 cells). DNA synthesis arrest was determined by ^3H-uptake at one day treatment and apoptosis was detected by DAPI staining at three day treatment. EC50 was calculated as the dosage of test compounds that gave 50% growth inhibition.

MDA-MB-435 cells = assay: Apoptosis by DAPI staining (Example 8); type: cell-based, human; conditions: Homo sapiens, 72 h; MDA-MB-435; 2% serum; DAPI staining at three day treatment
Method: as §4

Cc1c(C)c2c(c(C)c1OCC(=O)O)CC[C@@](C)(CCC[C@H](C)CCC[C@H](C)CCCC(C)C)O2 [Compound 1, 2,5,7,8-tetramethyl-(2R-(4R,8R,12-trimethyltridecyl)chroman-6-yloxy)acetic acid]
P21 mRNA and protein [1]: up-regulated | apoptotic EC50 (MDA-MB-435): 5-10 | apoptotic EC50 (HL-60): 5-10 | EC50 (LnCaP): 5 to 10 µg/mL (≈ 10.2 to 20.5 µM) | EC50 (Jurkat): 10 to 20 µg/mL (≈ 20.5 to 40.9 µM) | EC50 (DU-145): 5 to 10 µg/mL (≈ 10.2 to 20.5 µM) | apoptotic EC50 (ME-180): 1-5 | EC50 (C-170): 10 to 20 µg/mL (≈ 20.5 to 40.9 µM) | EC50 (DLD-1): 10 to 20 µg/mL (≈ 20.5 to 40.9 µM) | EC50 (RL-95-2): 10 to 20 µg/mL (≈ 20.5 to 40.9 µM) | EC50 (HT-29): 10 to 20 µg/mL (≈ 20.5 to 40.9 µM) | apoptotic EC50 (PC-3): 5-10 | apoptotic EC50 (MCF-7): 5-10 | EC50 (A-549): 10 to 20 µg/mL (≈ 20.5 to 40.9 µM) | apoptotic EC50 (MDA-MB-231): 5-10 | growth inhibitory (apoptotic inducing) properties specific for human cancer cells [2]: effective | toxicity upon autopsy ([3]; at completion of the MTD studies): no evidence of toxicity | weights of the mice versus VES treated, untreated and vehicle treated controls ([3]; mouse, in vivo): no significant difference | Fas receptor localisation ([4]; Fas signaling resistant human breast cancer cells): transported from the cytoplasm to the membrane | Fas/Fas ligand sensitivity of resistant tumor cells ([4]; Fas/Fas ligand resistant tumor cells): induce Fas/Fas ligand resistant tumor cells to become Fas/Fas ligand sensitive | anti-Fas triggered apoptosis, co-treatment ([4]; human breast and prostate cancer cells, co-treated versus separately): synergistic | EC50 (MCF-10A): > 20 µg/mL | EC50 (HMEC): > 20 µg/mL | EC50 (PREC): > 20 µg/mL | EC50 (T47D): > 20 µg/mL | EC50 (MCF-7 cells): 36 µM | EC50 (MDA-MB-435 cells): 30 µM
